Assays:
[1] = tested on: Anopheles gambiae (target-site-resistant and metabolic-resistant strain: RSPH); test: Target-site-resistant and metabolic-resistant Anopheles test: treated glazed tile, knock-down; format: in vivo
Experimental: (§1) The exposition time is 30 minutes.
(§2) 0.25 hours, 0.5 hours, 1 hour, 2 hour, 3 hour, 4 hour and 24 hours after contact to the treated surface, the knock-down proportion of the test animals in % is determined. Here, 100% means that all mosquitoes have been killed; 0% means that none of the mosquitoes has been killed.

mosquitoes = conditions: alone, stated as known, cited from earlier work
Aedes aegypti = test: Aedes test: contact on treated glazed tile, knock-down; format: in vivo
Experimental: To produce a suitable preparation of active compound combination the active compounds bendiocarb and clothianidin were dissolved in acetone (for the control group only one active compound was dissolved in acetone). The active compound combination preparation (and the active compound preparations) were pipetted onto a glazed tile and, after drying, adult mosquitoes of the species Aedes aegypti are placed onto the treated tile. The exposition time is 30 minutes.
as §2

[2] = tested on: Anopheles funestus metabolic-resistant strain FUMOZ-R; test: Metabolic-resistant Anopheles test: treated glazed tile, knock-down; format: in vivo
Experimental: as §1, §2

[3] = Clothianidin 5 mg/m^2 alone, 0.25 h after contact
[4] = Clothianidin 5 mg/m^2 alone, 0.5 h after contact
[5] = Clothianidin 5 mg/m^2 alone, 1 h after contact
[6] = Clothianidin 5 mg/m^2 alone, 2 h after contact
[7] = Clothianidin 5 mg/m^2 alone, 3 h after contact
[8] = Clothianidin 5 mg/m^2 alone, 4 h after contact
[9] = Clothianidin 5 mg/m^2 alone, 24 h after contact
[10] = Clothianidin 20 mg/m^2 alone, 0.25 h after contact
[11] = Clothianidin 20 mg/m^2 alone, 0.5 h after contact
[12] = Clothianidin 20 mg/m^2 alone, 1 h after contact
[13] = Clothianidin 20 mg/m^2 alone, 2 h after contact
[14] = Clothianidin 20 mg/m^2 alone, 3 h after contact
[15] = Clothianidin 20 mg/m^2 alone, 4 h after contact
[16] = Clothianidin 20 mg/m^2 alone, 24 h after contact
[17] = Bendiocarb 0.032 mg/m^2 alone, 0.25 h after contact
[18] = Bendiocarb 0.032 mg/m^2 alone, 0.5 h after contact
[19] = Bendiocarb 0.032 mg/m^2 alone, 1 h after contact
[20] = Bendiocarb 0.032 mg/m^2 alone, 2 h after contact
[21] = Bendiocarb 0.032 mg/m^2 alone, 3 h after contact
[22] = Bendiocarb 0.032 mg/m^2 alone, 4 h after contact
[23] = Bendiocarb 0.032 mg/m^2 alone, 24 h after contact
[24] = Bendiocarb 0.16 mg/m^2 alone, 0.25 h after contact
[25] = Bendiocarb 0.16 mg/m^2 alone, 0.5 h after contact
[26] = Bendiocarb 0.16 mg/m^2 alone, 1 h after contact
[27] = Bendiocarb 0.16 mg/m^2 alone, 2 h after contact
[28] = Bendiocarb 0.16 mg/m^2 alone, 3 h after contact
[29] = Bendiocarb 0.16 mg/m^2 alone, 4 h after contact
[30] = Bendiocarb 0.16 mg/m^2 alone, 24 h after contact

## CN/C(=N\[N+](=O)[O-])NCc1cnc(Cl)s1 [Clothianidin, clothianidin]
[1]; [3]
  Effect % (knock-down): 15%
[1]; [4]
  Effect % (knock-down): 25%
[1]; [5]
  Effect % (knock-down): 35%
[1]; [6]
  Effect % (knock-down): 35%
[1]; [7]
  Effect % (knock-down): 45%
[1]; [8]
  Effect % (knock-down): 50%
[1]; [9]
  Effect % (knock-down): 65%
[1]; [10]
  Effect % (knock-down): 30%
[1]; [11]
  Effect % (knock-down): 35%
[1]; [12]
  Effect % (knock-down): 40%
[1]; [13]
  Effect % (knock-down): 45%
[1]; [14]
  Effect % (knock-down): 50%
[1]; [15]
  Effect % (knock-down): 55%
[1]; [16]
  Effect % (knock-down): 65%
[1]; Clothianidin 50 mg/m^2 alone, 0.25 h after contact
  Effect % (knock-down): 10%
[1]; Clothianidin 50 mg/m^2 alone, 0.5 h after contact
  Effect % (knock-down): 35%
[1]; Clothianidin 50 mg/m^2 alone, 1 h after contact
  Effect % (knock-down): 65%
[1]; Clothianidin 50 mg/m^2 alone, 2 h after contact
  Effect % (knock-down): 65%
[1]; Clothianidin 50 mg/m^2 alone, 3 h after contact
  Effect % (knock-down): 60%
[1]; Clothianidin 50 mg/m^2 alone, 4 h after contact
  Effect % (knock-down): 65%
[1]; Clothianidin 50 mg/m^2 alone, 24 h after contact
  Effect % (knock-down): 95%
mosquitoes; on wood
  efficiency on wood: not efficient
Aedes aegypti; [3]
  Effect % (knock-down): 5%
Aedes aegypti; [4]
  Effect % (knock-down): 5%
Aedes aegypti; [5]
  Effect % (knock-down): 5%
Aedes aegypti; [6]
  Effect % (knock-down): 5%
Aedes aegypti; [7]
  Effect % (knock-down): 5%
Aedes aegypti; [8]
  Effect % (knock-down): 10%
Aedes aegypti; [9]
  Effect % (knock-down): 15%
Aedes aegypti; [10]
  Effect % (knock-down): 0%
Aedes aegypti; [11]
  Effect % (knock-down): 15%
Aedes aegypti; [12]
  Effect % (knock-down): 20%
Aedes aegypti; [13]
  Effect % (knock-down): 15%
Aedes aegypti; [14]
  Effect % (knock-down): 10%
Aedes aegypti; [15]
  Effect % (knock-down): 10%
Aedes aegypti; [16]
  Effect % (knock-down): 30%

## CNC(=O)Oc1cccc2c1OC(C)(C)O2 [Bendiocarb, bendiocarb]
[1]; Bendiocarb 0.032 mg/m^2 alone (Table 2), 0.25 h after contact
  Effect % (knock-down): 5%
[1]; Bendiocarb 0.032 mg/m^2 alone (Table 2), 0.5 h after contact
  Effect % (knock-down): 5%
[1]; Bendiocarb 0.032 mg/m^2 alone (Table 2), 1 h after contact
  Effect % (knock-down): 15%
[1]; Bendiocarb 0.032 mg/m^2 alone (Table 2), 2 h after contact
  Effect % (knock-down): 10%
[1]; Bendiocarb 0.032 mg/m^2 alone (Table 2), 3 h after contact
  Effect % (knock-down): 10%
[1]; Bendiocarb 0.032 mg/m^2 alone (Table 2), 4 h after contact
  Effect % (knock-down): 15%
[1]; Bendiocarb 0.032 mg/m^2 alone (Table 2), 24 h after contact
  Effect % (knock-down): 35%
[1]; Bendiocarb 0.032 mg/m^2 alone (Table 3), 0.25 h after contact
  Effect % (knock-down): 10%
[1]; Bendiocarb 0.032 mg/m^2 alone (Table 3), 0.5 h after contact
  Effect % (knock-down): 25%
[1]; Bendiocarb 0.032 mg/m^2 alone (Table 3), 1 h after contact
  Effect % (knock-down): 25%
[1]; Bendiocarb 0.032 mg/m^2 alone (Table 3), 2 h after contact
  Effect % (knock-down): 25%
[1]; Bendiocarb 0.032 mg/m^2 alone (Table 3), 3 h after contact
  Effect % (knock-down): 35%
[1]; Bendiocarb 0.032 mg/m^2 alone (Table 3), 4 h after contact
  Effect % (knock-down): 35%
[1]; Bendiocarb 0.032 mg/m^2 alone (Table 3), 24 h after contact
  Effect % (knock-down): 80%
[1]; Bendiocarb 0.16 mg/m^2 alone (Table 2), 0.25 h after contact
  Effect % (knock-down): 5%
[1]; Bendiocarb 0.16 mg/m^2 alone (Table 2), 0.5 h after contact
  Effect % (knock-down): 90%
[1]; Bendiocarb 0.16 mg/m^2 alone (Table 2), 1 h after contact
  Effect % (knock-down): 95%
[1]; Bendiocarb 0.16 mg/m^2 alone (Table 2), 2 h after contact
  Effect % (knock-down): 100%
[1]; Bendiocarb 0.16 mg/m^2 alone (Table 2), 3 h after contact
  Effect % (knock-down): 100%
[1]; Bendiocarb 0.16 mg/m^2 alone (Table 2), 4 h after contact
  Effect % (knock-down): 90%
[1]; Bendiocarb 0.16 mg/m^2 alone (Table 2), 24 h after contact
  Effect % (knock-down): 90%
[1]; Bendiocarb 0.16 mg/m^2 alone (Table 3), 0.25 h after contact
  Effect % (knock-down): 15%
[1]; Bendiocarb 0.16 mg/m^2 alone (Table 3), 0.5 h after contact
  Effect % (knock-down): 100%
[1]; Bendiocarb 0.16 mg/m^2 alone (Table 3), 1 h after contact
  Effect % (knock-down): 100%
[1]; Bendiocarb 0.16 mg/m^2 alone (Table 3), 2 h after contact
  Effect % (knock-down): 100%
[1]; Bendiocarb 0.16 mg/m^2 alone (Table 3), 3 h after contact
  Effect % (knock-down): 100%
[1]; Bendiocarb 0.16 mg/m^2 alone (Table 3), 4 h after contact
  Effect % (knock-down): 100%
[1]; Bendiocarb 0.16 mg/m^2 alone (Table 3), 24 h after contact
  Effect % (knock-down): 100%
[1]; Bendiocarb 0.8 mg/m^2 alone (Table 2), 0.25 h after contact
  Effect % (knock-down): 95%
[1]; Bendiocarb 0.8 mg/m^2 alone (Table 2), 0.5 h after contact
  Effect % (knock-down): 100%
[1]; Bendiocarb 0.8 mg/m^2 alone (Table 2), 1 h after contact
  Effect % (knock-down): 100%
[1]; Bendiocarb 0.8 mg/m^2 alone (Table 2), 2 h after contact
  Effect % (knock-down): 100%
[1]; Bendiocarb 0.8 mg/m^2 alone (Table 2), 3 h after contact
  Effect % (knock-down): 100%
[1]; Bendiocarb 0.8 mg/m^2 alone (Table 2), 4 h after contact
  Effect % (knock-down): 100%
[1]; Bendiocarb 0.8 mg/m^2 alone (Table 2), 24 h after contact
  Effect % (knock-down): 100%
mosquitoes; on concrete (alkaline)
  efficiency on concrete: not efficient
Aedes aegypti; [17]
  Effect % (knock-down): 0%
Aedes aegypti; [18]
  Effect % (knock-down): 0%
Aedes aegypti; [19]
  Effect % (knock-down): 0%
Aedes aegypti; [20]
  Effect % (knock-down): 0%
Aedes aegypti; [21]
  Effect % (knock-down): 0%
Aedes aegypti; [22]
  Effect % (knock-down): 5%
Aedes aegypti; [23]
  Effect % (knock-down): 0%
Aedes aegypti; [24]
  Effect % (knock-down): 0%
Aedes aegypti; [25]
  Effect % (knock-down): 5%
Aedes aegypti; [26]
  Effect % (knock-down): 5%
Aedes aegypti; [27]
  Effect % (knock-down): 5%
Aedes aegypti; [28]
  Effect % (knock-down): 10%
Aedes aegypti; [29]
  Effect % (knock-down): 10%
Aedes aegypti; [30]
  Effect % (knock-down): 5%
[2]; [17]
  Effect % (knock-down): 0%
[2]; [18]
  Effect % (knock-down): 5%
[2]; [19]
  Effect % (knock-down): 5%
[2]; [20]
  Effect % (knock-down): 5%
[2]; [21]
  Effect % (knock-down): 10%
[2]; [22]
  Effect % (knock-down): 10%
[2]; [23]
  Effect % (knock-down): 40%
[2]; [24]
  Effect % (knock-down): 0%
[2]; [25]
  Effect % (knock-down): 80%
[2]; [26]
  Effect % (knock-down): 80%
[2]; [27]
  Effect % (knock-down): 45%
[2]; [28]
  Effect % (knock-down): 50%
[2]; [29]
  Effect % (knock-down): 20%
[2]; [30]
  Effect % (knock-down): 90%
[2]; Bendiocarb 0.8 mg/m^2 alone, 0.25 h after contact
  Effect % (knock-down): 100%
[2]; Bendiocarb 0.8 mg/m^2 alone, 0.5 h after contact
  Effect % (knock-down): 100%
[2]; Bendiocarb 0.8 mg/m^2 alone, 1 h after contact
  Effect % (knock-down): 100%
[2]; Bendiocarb 0.8 mg/m^2 alone, 2 h after contact
  Effect % (knock-down): 100%
[2]; Bendiocarb 0.8 mg/m^2 alone, 3 h after contact
  Effect % (knock-down): 100%
[2]; Bendiocarb 0.8 mg/m^2 alone, 4 h after contact
  Effect % (knock-down): 95%
[2]; Bendiocarb 0.8 mg/m^2 alone, 24 h after contact
  Effect % (knock-down): 100%
